According to the OPERA property sets (Mansouri et al. 2018):

SMILES | logP
Cc1ccccc1OCC1CN=C(N)O1 (configuration not stated) | 1.69
COc1ccc(OCC2CN=C(N)O2)cc1 (configuration not stated) | 1.26
CN(C)c1cccc(OCC2CN=C(N)O2)c1 (configuration not stated) | 1.4
NC1=NCC(COc2ccc(N3CCOCC3)cc2)O1 (configuration not stated) | 0.6
COc1ccccc1OCC1CN=C(N)O1 (configuration not stated) | 0.85
NC1=NCC(COc2cccc([N+](=O)[O-])c2)O1 (configuration not stated) | 1.23
NC1=NCC(COc2ccccc2Cl)O1 (configuration not stated) | 1.77
CCOc1ccccc1OCC1CN=C(N)O1 (configuration not stated) | 1.24
NC1=NCC(COc2ccccc2)O1 (configuration not stated) | 1.27
NC1=NCC(COc2ccc(Cl)cc2)O1 (configuration not stated) | 2
Cc1ccc(OCC2CN=C(N)O2)cc1 (configuration not stated) | 1.79
NC1=NCC(COc2ccc([N+](=O)[O-])cc2)O1 (configuration not stated) | 1.17
